This is an account of results in patent US20240139290A1, “METHODS OF TREATING A CARDIOVASCULAR ISCHEMIC EVENT” (Radius Health, Inc., priority 2021, published 2024).

Entries after “also recorded” stand apart in the source; their conditions may differ.

The test system of series [1] is ERK. The series can be described thus: Immunoblot of phospho-ERK in HL-1 cardiomyocytes (normoxia or simulated ischemia + 10 min reoxygenation). It counts as cell-based, murine. The conditions noted are these: for phospho-ERK expression with co-administration of PD98059: 5 μM PD98059, control, abaloparatide- and PTHrP-treated groups. As for the experimental part:
(§1) At 24 h after the onset of treatment, cells underwent 2 h of SI+10 min reoxygenation, while additional time- and treatment-matched normoxic cultures served as controls (n=3 independent replicates per group). At 10 min post-reoxygenation, cells were harvested and lysed in RIPA buffer containing 2 protease and phosphatase inhibitors. The lysates were centrifuged at 14,000×g for 15 min, and the resultant supernatant was collected and probed for the expression of ERK (total and phosphorylated: antibodies from Cell Signaling Technology Inc., Danvers, MA, USA), PI3 kinase/Akt (total and phosphorylated: Cell Signaling Technology Inc., Danvers, MA, USA) and GAPDH (Sigma Aldrich Inc., St. Louis, MO, USA) using standard methods Immunoreactive bands were identified by incubation with horseradish peroxidase (HRP)-conjugated secondary antibody, visualized using x-ray film, and quantified using the NIH ImageJ software. […] At 24 h after the onset of treatment, cells underwent either 2 h of SI+24 h reoxygenation or a time-matched period of normoxia (n=2 independent replicates per group). At 24 h following relief of SI, cell viability was quantified using the MTT assay as described in Example 1.
HL-1 cardiomyocytes were treated as described in Example 5, but were harvested at 10 minutes post-reoxygenation, lysed, and probed for phospho- and total ERK expression as detailed in Example 5.

For series [2] the following is noted: clinical studies; cited from earlier work.
In series [3] the test system is Akt. As to the kind of experiment: Immunoblot of phospho-Akt in HL-1 cardiomyocytes (normoxia or simulated ischemia + 10 min reoxygenation). The class given is cell-based, murine. The settings on record: 2 h simulated ischemia + 10 min reoxygenation; 10 nM; vs vehicle; Example 3, FIG. 3B. Here is the method:
as §1

For series [4] the following is noted: Obaidi et al. 2010; cited from earlier work.
For series [5] the following is noted: human, in vivo, sc; cited from earlier work.
For series [6], the system named is HL-1 cardiomyocytes. The series can be described thus: HL-1 cardiomyocyte viability (MTT assay) under normoxia or simulated ischemia-reperfusion. The class given is cell-based, murine. As for the experimental part: HL-1 cardiomyocytes were grown to ˜80% confluence in 95% room air/5% CO2 at 37° C. in Claycomb medium supplemented with fetal bovine serum (10%), L-glutamine (2 mM), norepinephrine (0.1 mM), penicillin (100 U/mL) and streptomycin (100 μg/mL). The cardiomyocytes were then incubated for 24 hours with abaloparatide (0.1 nM, 1.0 nM, 10 nM, 100 nM) or vehicle control. At 24 hours after the onset of incubation, the cells were subjected to 2 hours of simulated ischemia (achieved by depletion of oxygen and nutrients), followed by 24 hours of reoxygenation. During simulated ischemia, Claycomb medium containing drug/placebo was replaced with drug-free hypoxia buffer at pH 6.6 (composed of NaCl ([…]), KCl (8 mM), KH2PO4 (1.2 mM), 1.25 mM MgSO4 (1.25 mM), CaCl2 (1.2 mM), NaHCO3 (6.25 mM), HEPES (20 mM), glucose (5.5 mM), 2-deoxy-D-glucose (20 mM), sodium lactate (5 mM): all ingredients from Sigma Aldrich, St. Louis, MO, USA) and the culture plates were sealed in a hermetic chamber with GasPak EZ Gas Generating Sachets (BD Biosciences, San Jose, CA, USA). Reoxygenation was achieved by removing the plates from the sealed chamber and exchanging the hypoxia buffer with serum-free Claycomb medium. Additional time- and treatment-matched normoxic cultures served as controls (n=4 independent replicates per group). Cell viability was quantified using the 3-(4,5-dimethythiazol-2-yl)-2,5-diphenyl tetrazolium bromide (MTT) assay.
At 24 hours after the onset of incubation, the cells were subjected to 2 hours of simulated ischemia (achieved by depletion of oxygen and nutrients), followed by 24 hours of reoxygenation. Additional time- and treatment-matched normoxic cultures served as controls. Cell viability was quantified using the 3-(4,5-dimethythiazol-2-yl)-2,5-diphenyl tetrazolium bromide (MTT) assay.
as §1
Twenty-four hours after the onset of treatment, cells underwent 2 hours of simulated ischemia followed by 24 hours of reoxygenation. Additional time- and treatment-matched normoxic cultures served as controls. Cell viability was quantified using the MTT assay.

Series [7] has as its system HL-1 cardiomyocytes. The conditions noted are these: doxorubicin 2.5 μM for 24 hours; previously shown; cited from earlier work.
Setting [8] is: simulated ischemia + 10 min reoxygenation, Example 6, FIG. 6B.

In the case of `COc1cccc(-c2cc(=O)c3ccccc3o2)c1N` [PD98059], the “phospho-ERK expression with co-administration of PD98059” value in series [1] (setting [8]) is “attenuated”.

As for `CC[C@H](C)[C@H](NC(=O)[C@H](CCC(=O)O)NC(=O)[C@H](CO)NC(=O)[C@@H](NC(=O)[C@@H](N)CO)C(C)C)C(=O)N[C@@H](CCC(N)=O)C(=O)N[C@@H](CC(C)C)C(=O)N[C@@H](CCSC)C(=O)N[C@@H](Cc1cnc[nH]1)C(=O)N[C@@H](CC(N)=O)C(=O)N[C@@H](CC(C)C)C(=O)NCC(=O)N[C@@H](CCCCN)C(=O)N[C@@H](Cc1cnc[nH]1)C(=O)N[C@@H](CC(C)C)C(=O)N[C@@H](CC(N)=O)C(=O)N[C@@H](CO)C(=O)N[C@@H](CCSC)C(=O)N[C@@H](CCC(=O)O)C(=O)N[C@@H](CCCN=C(N)N)C(=O)N[C@H](C(=O)N[C@@H](CCC(=O)O)C(=O)N[C@@H](Cc1c[nH]c2ccccc12)C(=O)N[C@@H](CC(C)C)C(=O)N[C@@H](CCCN=C(N)N)C(=O)N[C@@H](CCCCN)C(=O)N[C@@H](CCCCN)C(=O)N[C@@H](CC(C)C)C(=O)N[C@@H](CCC(N)=O)C(=O)N[C@@H](CC(=O)O)C(=O)N[C@H](C(=O)N[C@@H](Cc1cnc[nH]1)C(=O)N[C@@H](CC(N)=O)C(=O)N[C@@H](Cc1ccccc1)C(=O)O)C(C)C)C(C)C` [teriparatide], in series [2], the orthostatic hypotension result is reported as “transient episodes of symptomatic orthostatic hypotension”, the palpitations result was “palpitations” and the tachycardia result is “tachycardia”.

Turning to abaloparatide, the “expression of phospho-Akt (normalized to GAPDH)” value in series [3] was “better preservation of phospho-Akt”. Besides, the “expression of phospho-ERK (normalized to total ERK)” value in series [1] (2 h simulated ischemia + 10 min reoxygenation, 10 nM, vs vehicle, Example 3, FIG. 3C) is reported as “augmented expression of phospho-ERK”. Besides, the “expression of phospho-ERK vs vehicle-controls” value in series [1] (simulated ischemia + 10 min reoxygenation, 10 nM, Example 6, FIG. 6B) was “augmented expression phospho-ERK”. In addition, the “phospho-ERK expression with co-administration of PD98059” value in series [1] (setting [8]) is “attenuated”. In addition, in series [4], the anabolic activity result was “potent anabolic activity”, the bone resorption result is recorded as “decreased bone resorption” and the calcium-mobilizing potential result is “less calcium-mobilizing potential”. In addition, in series [5], the heart rate result is “modest and transient increases in heart rate”; the “heart rate relative to placebo” value is “transient increases in heart rate”; the “incidence of palpitations relative to placebo” value is on record as “higher incidences of palpitations”; the supine blood pressure result was “decreases in supine blood pressure”. The “HL-1 cell viability vs vehicle-controls” value in series [6] (2 h simulated ischemia + 24 h reoxygenation, 10 nM, Example 5, FIG. 5B) is “viability was better maintained”. The “HL-1 cell viability vs vehicle-controls” value in series [6] (2 h simulated ischemia + 24 h reoxygenation, 10 and 100 nM, Example 4, FIG. 4B) is recorded as “viability was better-maintained”. For the same molecule, the “HL-1 cell viability vs vehicle control” value in series [6] (2 h simulated ischemia + 24 h reoxygenation, abaloparatide 0.1-100 nM, 24 h pre-incubation, Example 1, FIG. 1B) was “viability was better-maintained”. Also, the “efficacy of abaloparatide relative to PTHrP(1-36)” value in series [6] (in vitro model of ischemia-reperfusion injury, summary statement) is “slightly but significantly greater than that of PTHrP(1-36)”. Besides, the “viability of HL-1 cardiomyocyte cells” value in series [6] (in vitro model of lethal ischemia-reperfusion injury, summary statement) is listed as “enhancement in viability”. The HL-1 cell viability result in series [6] (normoxic conditions, abaloparatide 0.1-100 nM, 24 h incubation, Example 1, FIG. 1A) is recorded as “no effect on HL-1 cell viability”. The “protective effect on viability with co-administration of PD98059” value in series [6] (simulated ischemia-reperfusion, 10 nM peptide + 5 μM PD98059, Example 5, FIG. 5B) is “attenuated by co-administration of PD98059; also recorded: attenuated the protective effect”. Besides, the “viability with 10 nM abaloparatide compared with other groups” value in series [6] (simulated ischemia-reperfusion, p<0.05 between groups, Example 4, FIG. 4B) is “greater than that achieved with 100 nM abaloparatide and 10 nM PTHrP(1-36)”. For the same molecule, in series [6] (simulated ischemia-reperfusion, tested 0.1, 1.0, 10, 100 nM, Example 1, FIG. 1B), the “concentration with greatest efficacy on viability” value is recorded as 10 nM. In series [6] (summary statement on Examples 1-3), the “HL-1 cardiomyocyte death caused by simulated ischemia-reperfusion” value is given as “attenuated HL-1 cardiomyocyte death”.

For the molecule `COc1cccc2c1C(=O)c1c(O)c3c(c(O)c1C2=O)C[C@@](O)(C(=O)CO)C[C@@H]3O[C@H]1C[C@H](N)[C@H](O)[C@H](C)O1` [doxorubicin], in series [7], the HL-1 cardiomyocytes killed is ~50%.
